Data on six compounds can be found in ChEMBL document CHEMBL1201862, “PubChem BioAssay data set” (2004).

Active and inactive are the calls of the source. Where only a bound is given, the exact number is not on record here.

In assay [1] the test system is BJ. The experiment in a line: BJ-TERT fibroblast viability loss – cell-based, RAS-independent, luminescence, dose response (AID 1933). The format is functional. The following applies: Homo sapiens.
Assay [2] deals with Glutathione S-transferase omega-1 (Homo sapiens, UniProt P78417). The assay is described as follows: IC50 of human GSTO1 inhibition by gel ABPP – biochemical, SE-Rh probe, in-gel fluorescence, powder samples, late-stage follow-up (AID 463081). The assay is classed as functional.
Assay [3] can be described thus: Intein inhibitors as potential Tuberculosis drugs, a cytotoxicity screen. [Related pubchem assays (depositor defined):AID2221, AID2223, AID434968, AID435010, AID449749, AID449750, AID489010]. The format is functional.
The target in assay [4] is T1, Microphthalmia-associated transcription factor (Homo sapiens, UniProt O75030).
T1 sequence (O75030 whole entry): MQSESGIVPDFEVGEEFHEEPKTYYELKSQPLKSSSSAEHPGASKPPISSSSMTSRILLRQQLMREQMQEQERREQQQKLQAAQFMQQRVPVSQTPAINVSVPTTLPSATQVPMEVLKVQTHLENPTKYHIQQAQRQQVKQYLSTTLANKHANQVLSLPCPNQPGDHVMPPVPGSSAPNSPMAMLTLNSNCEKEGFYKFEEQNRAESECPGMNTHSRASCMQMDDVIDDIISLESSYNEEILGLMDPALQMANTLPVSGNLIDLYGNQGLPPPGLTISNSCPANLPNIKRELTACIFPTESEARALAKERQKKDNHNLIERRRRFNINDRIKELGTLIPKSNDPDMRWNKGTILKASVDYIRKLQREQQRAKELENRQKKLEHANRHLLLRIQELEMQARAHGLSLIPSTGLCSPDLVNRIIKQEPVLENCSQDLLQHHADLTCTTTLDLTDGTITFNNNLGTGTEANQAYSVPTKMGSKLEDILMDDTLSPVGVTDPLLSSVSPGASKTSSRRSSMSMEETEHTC
The assay is described as follows: reducers of TRPM1 reporter luminescence, concentration series – cell-based, SK-MEL-5, cherry-picked, set 3, MITF inhibitor project, dose response (AID 493073).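 Further: SK-MEL-5 melanoma cells with luciferase driven by the MITF target TRPM1 promoter.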 The assay is classed as functional.

Assay [5] has as its system BJ. The assay is described as follows: cells. The assay is classed as functional, cell-based. The following applies: Homo sapiens.
In assay [6] the test system is BJ. The experiment in a line: BJ-TERT-LT-ST fibroblast viability loss – cell-based, RAS-independent, luminescence, dose response (AID 1935).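 Further: BJ fibroblasts immortalized with TERT plus LT and ST oncogenes.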 The following applies: Homo sapiens. The format is functional.
The target of the next assay is T2, Protein RecA (Mycobacterium tuberculosis, UniProt P9WHJ3).
T2 sequence (P9WHJ3 whole entry): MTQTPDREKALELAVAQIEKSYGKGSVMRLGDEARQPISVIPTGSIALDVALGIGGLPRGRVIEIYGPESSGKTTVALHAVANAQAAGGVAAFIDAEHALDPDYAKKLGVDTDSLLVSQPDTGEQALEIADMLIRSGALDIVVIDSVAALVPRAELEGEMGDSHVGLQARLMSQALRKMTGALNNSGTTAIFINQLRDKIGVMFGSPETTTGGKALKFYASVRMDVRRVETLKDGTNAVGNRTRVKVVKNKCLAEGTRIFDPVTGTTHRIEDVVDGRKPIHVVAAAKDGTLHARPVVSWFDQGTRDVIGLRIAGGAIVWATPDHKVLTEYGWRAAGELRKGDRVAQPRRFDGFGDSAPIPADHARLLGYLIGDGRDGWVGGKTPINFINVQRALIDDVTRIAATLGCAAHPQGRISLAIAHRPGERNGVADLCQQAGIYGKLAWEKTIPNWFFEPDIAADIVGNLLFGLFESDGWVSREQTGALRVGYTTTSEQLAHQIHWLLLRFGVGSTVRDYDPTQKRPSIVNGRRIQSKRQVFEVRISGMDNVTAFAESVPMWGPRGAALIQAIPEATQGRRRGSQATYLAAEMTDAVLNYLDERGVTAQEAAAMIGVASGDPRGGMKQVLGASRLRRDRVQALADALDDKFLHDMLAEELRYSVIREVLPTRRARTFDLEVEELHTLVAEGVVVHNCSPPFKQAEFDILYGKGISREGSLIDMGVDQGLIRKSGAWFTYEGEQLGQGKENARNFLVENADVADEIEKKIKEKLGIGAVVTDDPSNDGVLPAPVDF
The assay is described as follows: Fluorescence Cell-Free Homogeneous Dose Retest to Identify Inhibitors of RecA-Intein Splicing Activity. [Related pubchem assays (depositor defined):AID2097, AID2223, AID489010, AID492950]. The assay is classed as functional.

The nature of assay [7]: DRD fibroblast viability loss – cell-based, non-viral oncogenic, luminescence, dose response (AID 1934). The following applies: Homo sapiens. The format is functional.
The target in assay [8] is T3, Replicative DNA helicase DnaB (Mycobacterium tuberculosis, UniProt P9WMR3).
T3 sequence (P9WMR3 whole entry): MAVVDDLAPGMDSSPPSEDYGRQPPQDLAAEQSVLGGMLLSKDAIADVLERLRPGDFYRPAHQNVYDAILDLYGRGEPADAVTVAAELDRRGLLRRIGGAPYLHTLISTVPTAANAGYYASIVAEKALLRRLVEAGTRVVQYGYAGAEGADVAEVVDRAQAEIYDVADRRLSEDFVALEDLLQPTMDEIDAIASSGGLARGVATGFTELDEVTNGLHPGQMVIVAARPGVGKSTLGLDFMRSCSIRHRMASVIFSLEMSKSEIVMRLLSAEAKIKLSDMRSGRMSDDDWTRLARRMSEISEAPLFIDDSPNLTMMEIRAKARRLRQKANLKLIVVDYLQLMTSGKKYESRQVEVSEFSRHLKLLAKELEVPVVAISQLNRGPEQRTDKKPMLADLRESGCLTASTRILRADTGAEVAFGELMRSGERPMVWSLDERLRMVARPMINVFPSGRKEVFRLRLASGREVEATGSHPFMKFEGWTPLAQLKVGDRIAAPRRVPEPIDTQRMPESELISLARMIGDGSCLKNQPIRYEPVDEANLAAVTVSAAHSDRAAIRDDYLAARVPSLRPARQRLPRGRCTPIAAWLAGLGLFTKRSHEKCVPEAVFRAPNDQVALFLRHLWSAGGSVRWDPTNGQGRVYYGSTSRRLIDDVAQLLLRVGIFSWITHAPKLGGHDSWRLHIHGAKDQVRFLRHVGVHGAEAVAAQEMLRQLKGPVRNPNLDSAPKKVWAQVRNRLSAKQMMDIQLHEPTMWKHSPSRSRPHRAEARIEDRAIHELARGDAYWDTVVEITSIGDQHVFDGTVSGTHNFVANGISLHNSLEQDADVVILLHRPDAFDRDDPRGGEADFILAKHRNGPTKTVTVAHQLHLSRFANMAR
The experiment in a line: DnaB intein splicing inhibitors, dose response, biochemical, cell-free fluorescence (AID 449749). The format is functional.

Assay [9] addresses Protein phosphatase methylesterase 1 (Homo sapiens, UniProt Q9Y570). The experiment in a line: inhibition of PME-1 probe labeling – gel-based ABPP, IC50, set 1, late-stage follow-up (AID 463130). The format is functional.
For a further assay, the target named is T4, X-box-binding protein 1 (Homo sapiens, UniProt P17861).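 Further: confirmatory dose-response counter-screen serving a CHOP assay.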
T4 sequence (P17861 whole entry): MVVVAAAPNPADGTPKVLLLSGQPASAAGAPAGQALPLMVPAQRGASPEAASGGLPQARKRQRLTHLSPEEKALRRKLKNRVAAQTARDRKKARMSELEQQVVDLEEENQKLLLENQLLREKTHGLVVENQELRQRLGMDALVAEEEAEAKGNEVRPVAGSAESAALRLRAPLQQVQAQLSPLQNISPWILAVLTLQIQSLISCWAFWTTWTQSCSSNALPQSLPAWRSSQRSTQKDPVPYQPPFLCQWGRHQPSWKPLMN
The format is functional, Cricetulus griseus.

Assay [10] addresses DNA damage-inducible transcript 3 protein (Mus musculus, UniProt P35639). The assay is classed as functional, Cricetulus griseus.
The next assay concerns T-cell. The experiment in a line: loss of vesicle association with mouse CD8+ T cells – mouse 2C CD8+ T cells, flow cytometry, dose response (AID 485284). The format is functional. In general terms: Flow cytometry measures light scatter and fluorescence of single cells or particles in a stream.
Assay [11] in a line: toxicity toward cultured mammalian cells – cell-based, plate reader, cherry-pick samples, cytotoxicity control, dose response (AID 504397). The format is functional.
The target of assay [12] is Induced myeloid leukemia cell differentiation protein Mcl-1 (Homo sapiens, UniProt Q07820). The format is functional.
For assay [13], the target named is T5, Runt-related transcription factor 1/Core-binding factor subunit beta (Homo sapiens, UniProt Q01196+Q13951). The experiment in a line: disruptors of Runt domain/CBFb-SMMHC interaction – biochemical, FRET, Cerulean-Runt, Venus-CBFb-SMMHC, uHTS, […] (AID 1434). The format is protein assay.
The target in assay [14] is T5, Runt-related transcription factor 1/Core-binding factor subunit beta. The experiment in a line: Runt domain/CBFb-SMMHC interaction disruptors – biochemical, TR-FRET (AID 1438). The assay is classed as protein assay. On the technique in general: TR-FRET usually uses a lanthanide donor and a delayed reading to cut background.
In assay [15] the target is T6, Zinc finger protein mex-5 (Caenorhabditis elegans, UniProt Q9XUB2).
T6 sequence (Q9XUB2 whole entry): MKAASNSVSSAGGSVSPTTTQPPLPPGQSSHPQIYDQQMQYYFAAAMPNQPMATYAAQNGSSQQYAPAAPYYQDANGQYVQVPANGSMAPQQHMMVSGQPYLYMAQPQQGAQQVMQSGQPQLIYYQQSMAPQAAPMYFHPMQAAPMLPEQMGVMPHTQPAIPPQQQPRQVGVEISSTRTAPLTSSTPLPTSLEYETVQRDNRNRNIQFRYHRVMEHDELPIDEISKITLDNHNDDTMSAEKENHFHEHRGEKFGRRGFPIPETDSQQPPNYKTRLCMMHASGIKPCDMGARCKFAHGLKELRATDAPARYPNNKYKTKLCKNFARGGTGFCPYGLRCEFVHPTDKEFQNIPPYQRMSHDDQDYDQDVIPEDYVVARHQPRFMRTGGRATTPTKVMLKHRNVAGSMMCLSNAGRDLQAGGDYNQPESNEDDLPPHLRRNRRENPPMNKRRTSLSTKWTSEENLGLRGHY
The experiment in a line: potency of MEX-5 RNA-binding blockers – biochemical, C. elegans, fluorescence polarization, dose response (AID 1960). (Polarisation of emitted light reports the rotation of a fluorescent probe.)

Assay [16] has as its target T7, RNA-binding protein pos-1 (Caenorhabditis elegans, UniProt G5EF15).
T7 sequence (G5EF15 whole entry): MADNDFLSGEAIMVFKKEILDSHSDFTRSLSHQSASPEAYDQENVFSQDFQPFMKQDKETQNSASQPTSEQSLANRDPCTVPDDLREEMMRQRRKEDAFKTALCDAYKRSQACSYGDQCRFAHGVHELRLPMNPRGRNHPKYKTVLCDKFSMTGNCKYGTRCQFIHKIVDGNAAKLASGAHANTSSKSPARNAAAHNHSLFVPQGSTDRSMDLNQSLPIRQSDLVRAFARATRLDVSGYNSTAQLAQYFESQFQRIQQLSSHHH
The experiment in a line: disruptors of C. elegans POS-1 RNA interaction – biochemical, fluorescence polarization, dose response (AID 1964).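 Further: purified POS-1 fused to maltose binding protein made in E. coli; potency of compounds blocking POS-1 binding to fluorescent RNA.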
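Wherever CC50 is given: cells exposed to compound for 72 hours before luminescence readout.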

T5 sequence (Q01196 whole entry, the tested form may be a part): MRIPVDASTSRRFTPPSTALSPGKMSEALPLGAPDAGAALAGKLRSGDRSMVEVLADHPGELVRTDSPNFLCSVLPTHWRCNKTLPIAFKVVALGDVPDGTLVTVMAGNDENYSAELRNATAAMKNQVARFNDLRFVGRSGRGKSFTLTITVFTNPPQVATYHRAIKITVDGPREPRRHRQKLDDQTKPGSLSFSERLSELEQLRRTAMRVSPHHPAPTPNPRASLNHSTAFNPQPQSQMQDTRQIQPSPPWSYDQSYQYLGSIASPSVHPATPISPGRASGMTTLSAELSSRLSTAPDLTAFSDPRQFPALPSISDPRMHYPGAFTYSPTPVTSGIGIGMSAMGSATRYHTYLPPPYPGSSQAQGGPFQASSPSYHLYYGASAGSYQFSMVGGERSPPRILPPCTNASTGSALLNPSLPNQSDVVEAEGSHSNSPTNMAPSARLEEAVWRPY
T5 sequence (Q13951 whole entry, the tested form may be a part): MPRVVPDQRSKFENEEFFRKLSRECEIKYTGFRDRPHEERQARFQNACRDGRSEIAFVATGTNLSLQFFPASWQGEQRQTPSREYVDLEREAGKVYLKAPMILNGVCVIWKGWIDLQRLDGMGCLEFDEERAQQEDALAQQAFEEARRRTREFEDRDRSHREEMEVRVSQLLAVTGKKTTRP
Chain of DNA damage-inducible transcript 3 protein (P35639 whole entry): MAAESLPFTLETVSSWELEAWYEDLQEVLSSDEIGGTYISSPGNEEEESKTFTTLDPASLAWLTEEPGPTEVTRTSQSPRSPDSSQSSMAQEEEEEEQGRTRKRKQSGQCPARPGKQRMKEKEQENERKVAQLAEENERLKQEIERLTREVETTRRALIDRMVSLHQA
Chain of Glutathione S-transferase omega-1 (P78417 whole entry): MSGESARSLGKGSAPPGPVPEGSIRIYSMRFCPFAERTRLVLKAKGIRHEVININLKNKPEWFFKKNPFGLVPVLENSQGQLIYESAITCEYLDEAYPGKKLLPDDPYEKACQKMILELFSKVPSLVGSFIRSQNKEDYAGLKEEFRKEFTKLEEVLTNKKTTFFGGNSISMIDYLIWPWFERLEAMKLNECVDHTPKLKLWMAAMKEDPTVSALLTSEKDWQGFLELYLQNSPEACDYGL
Chain of Protein phosphatase methylesterase 1 (Q9Y570 whole entry): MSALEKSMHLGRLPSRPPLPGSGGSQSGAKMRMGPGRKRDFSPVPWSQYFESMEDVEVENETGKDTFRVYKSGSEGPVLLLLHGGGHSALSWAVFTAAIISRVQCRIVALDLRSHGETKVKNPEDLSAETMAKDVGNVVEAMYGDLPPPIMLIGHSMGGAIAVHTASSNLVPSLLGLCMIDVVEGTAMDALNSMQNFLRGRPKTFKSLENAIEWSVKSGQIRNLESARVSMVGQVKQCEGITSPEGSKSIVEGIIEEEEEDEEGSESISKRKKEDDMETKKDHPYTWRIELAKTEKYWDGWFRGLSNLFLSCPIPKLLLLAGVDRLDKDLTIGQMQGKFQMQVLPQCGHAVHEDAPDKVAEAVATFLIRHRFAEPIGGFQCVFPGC
Chain of Induced myeloid leukemia cell differentiation protein Mcl-1 (Q07820 whole entry, the tested form may be a part): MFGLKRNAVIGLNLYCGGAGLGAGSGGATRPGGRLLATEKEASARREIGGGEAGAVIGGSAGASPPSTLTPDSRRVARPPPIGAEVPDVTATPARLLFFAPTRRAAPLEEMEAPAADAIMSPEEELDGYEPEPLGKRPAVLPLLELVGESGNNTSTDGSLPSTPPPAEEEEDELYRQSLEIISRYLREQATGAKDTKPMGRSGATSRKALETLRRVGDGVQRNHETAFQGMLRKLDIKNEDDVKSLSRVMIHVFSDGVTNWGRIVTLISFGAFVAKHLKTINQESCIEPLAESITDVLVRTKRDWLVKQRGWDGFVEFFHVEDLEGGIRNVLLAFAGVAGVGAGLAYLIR

As to `O=C(NC1CCCCC1)C(c1cccnc1)N(C(=O)CCl)c1cccc(Cl)c1` (centres undefined), the EC50 (usually the concentration giving half of the maximal effect) was 0.349 µM (active) in the assay with BJ [1]; 5.05 µM (active) in the assay with BJ [5]; 7.06 µM (inconclusive) with BJ [6]; 0.467 µM (active) on Protein RecA; 2.77 µM (active) in [7]. In [2], the half-inhibitory concentration (IC50) (in general, the point on the concentration scale where inhibition reaches its midpoint) is 0.038 µM (active). In addition, in [3], the CC50 (in general, the concentration that lowers cell viability or growth by half) is 0.82 µM (active). For the same compound, the half-maximal activity concentration (AC50) (commonly the midpoint of the concentration-response curve, whichever way the signal moves) is 4.16 µM (active) in [4] and 3.23 µM (active) in assay [8].

As to `COC(=O)N1C(=O)[C@@](CC(C)C)(c2ccccc2)N1C(=O)OC`, the IC50 in [9] was 0.227 µM (active).

In the case of `C=CCO/C(O)=C1\C(C)=NC(SCC(=O)Nc2ccccc2)=C(C#N)C1c1ccco1` (centres undefined), at X-box-binding protein 1, the “Absolute IC50 (XBP1)” value worked out at 10 µM. Also, the “Absolute IC50 (CHOP)” value in assay [10] was 10 µM.

For `CN(C)C=O.O=C(COC(=O)C12CC3CC(CC(Br)(C3)C1)C2)Nc1cccc(S(=O)(=O)N2CCOCC2)c1`, the EC50 with T-cell is 4.6 µM (active).

With `COc1ccccc1/C=C/C=N/NC(=O)CN1CCN(S(=O)(=O)c2ccc(C)cc2)CC1`, the AC50 in [11] is 132 µM (active).

Turning to `COc1ccc(C(=O)/N=c2\c(C#N)cc3c(=O)n4cccc(C)c4nc3n2Cc2ccco2)cc1`, the IC50 in assay [12] was 3.9 µM (active); in [13], 8.9 µM (active); in assay [14], 73.7 µM (inactive). The EC50 in [15] is > 300 µM (not active); in [16] it was 220 µM (active).
